Test results: patent publication US8410177B2, “Curcumin derivatives” (Indian Institute of Technology Bombay, priority 2009, dated 2013)

melting point [°C]	Compound
200 to 202	COc1ccc(/C=C/C(=O)C2C(=O)CC(c3ccc(OC)cc3)[C@H]([N+](=O)[O-])C2c2ccc(OC)cc2)cc1 (some centres unmarked) [IX-1, 3,5-Bis(4-Methoxyphenyl)-2-((E)-3-(4-Methoxyphenyl)acryloyl)-4-Nitrocyclohexanone]
126 to 128	COc1ccc(/C=C/C(=O)C2C(=O)C[C@H](c3ccc(OC)cc3)[C@H]([N+](=O)[O-])[C@H]2c2ccc(OC)c(OC)c2)cc1 (some centres unmarked) [IX-2, 3-(3,4-Dimethoxyphenyl)-5-(4-Methoxyphenyl)-2-((E)-3-(4-Methoxyphenyl)acryloyl)-4-Nitrocyclohexanone]
164 to 165	COc1ccc(/C=C/C(=O)C2C(=O)C[C@H](c3ccc(OC)cc3)[C@H]([N+](=O)[O-])[C@H]2c2ccccc2)cc1 (some centres unmarked) [IX-3, 5-(4-Methoxyphenyl)-2-((E)-3-(4-Methoxyphenyl)acryloyl)-4-Nitro-3-Phenylcyclohexanone]
156 to 158	COc1ccc(/C=C/C(=O)C2C(=O)C[C@H](c3ccc(OC)cc3)[C@H]([N+](=O)[O-])C2c2ccc(Cl)cc2)cc1 (some centres unmarked) [IX-4, 3-(4-Chlorophenyl)-5-(4-Methoxyphenyl)-2-((E)-3-(4-Methoxyphenyl)acryloyl)-4-Nitrocyclohexanone]
160 to 162	COc1ccc(/C=C/C(=O)C2C(=O)C[C@H](c3ccc(OC)cc3)[C@H]([N+](=O)[O-])[C@H]2c2cccs2)cc1 (some centres unmarked) [IX-5, 5-(4-Methoxyphenyl)-2-((E)-3-(4-Methoxyphenyl)acryloyl)-4-Nitro-3-(Thiophen-2-yl)cyclohexanone]
154 to 156	COc1ccc(/C=C/C(=O)C2C(=O)C[C@H](c3ccc(OC)cc3)[C@H]([N+](=O)[O-])[C@H]2c2ccc3c(c2)OCO3)cc1 (some centres unmarked) [IX-6, 3-(Benzo[a][1,3]dioxol-5-yl)-5-(4-Methoxyphenyl)-2-((E)-3-(4-Methoxyphenyl)acryloyl)-4-Nitrocyclohexanone]
192	COc1ccc(/C=C/C(=O)C2C(=O)C[C@H](c3ccc(OC)cc3)[C@H]([N+](=O)[O-])[C@H]2c2ccco2)cc1 (some centres unmarked) [IX-7, 3-(Furan-2-yl)-5-(4-Methoxyphenyl)-2-((E)-3-(4-Methoxyphenyl)acryloyl)-4-Nitrocyclohexanone]
88 to 90	COc1ccc(/C=C/C(=O)C2C(=O)C[C@H](c3ccc(OC)cc3)[C@H]([N+](=O)[O-])[C@H]2/C=C/c2ccccc2)cc1 (some centres unmarked) [IX-9, 5-(4-Methoxyphenyl)-2-((E)-3-(4-Methoxyphenyl)acryloyl)-4-nitro-3-styrylcyclohexanone]
158 to 160	COc1ccc(C2C(C(=O)/C=C/c3ccc(OC)c(OC)c3)C(=O)C[C@H](c3ccc(OC)c(OC)c3)[C@@H]2[N+](=O)[O-])cc1 (some centres unmarked) [IX-10, 5-(3,4-dimethoxyphenyl)-3-(4-methoxyphenyl)-2-((E)-3-(3,4-dimethoxyphenyl)acryloyl)-4-Nitrocyclohexanone]
83 to 85	COc1ccc([C@H]2C(C(=O)/C=C/c3ccc(O)c(OC)c3)C(=O)C[C@H](c3ccc(O)c(OC)c3)[C@@H]2[N+](=O)[O-])cc1 (some centres unmarked) [IX-11, 5-(4-hydroxy-3-methoxyphenyl)-2-((E)-3-(4-hydroxy-3-methoxyphenyl)acryloyl)-3-(4-methoxyphenyl)-4-nitrocyclohexanone]
108 to 110	COc1ccc([C@H]2C(C(=O)/C=C/c3ccccc3)C(=O)C[C@H](c3ccccc3)[C@@H]2[N+](=O)[O-])cc1 (some centres unmarked) [IX-12, 3-(4-methoxyphenyl)-4-nitro-5-phenyl-2-((E)-3-phenylacryloyl)cyclohexanone]
203 to 205	COc1ccc(/C=C/C(=O)C2C(=O)C[C@H](c3ccc(OC)cc3)[C@H]([N+](=O)[O-])[C@H]2C2CCCCC2)cc1 (some centres unmarked) [IX-14, 3-cyclohexyl-5-(4-methoxyphenyl)-2-((E)-3-(4-methoxyphenyl)acryloyl)-4-nitrocyclohexanone]
127 to 129	CCCC[C@H]1C(C(=O)/C=C/c2ccc(OC)cc2)C(=O)C[C@H](c2ccc(OC)cc2)[C@@H]1[N+](=O)[O-] (some centres unmarked) [IX-15, 3-butyl-5-(4-methoxyphenyl)-2-((E)-3-(4-methoxyphenyl)acryloyl)-4-nitrocyclohexanone]
76 to 78	COc1ccc([C@H]2C(C(=O)/C=C/c3ccc(OCc4ccccc4)c(OC)c3)C(=O)C[C@H](c3ccc(OCc4ccccc4)cc3)[C@@H]2[N+](=O)[O-])cc1 (some centres unmarked) [IX-16, 2-((E)-3-(4-(benzyloxy)-3-methoxyphenyl)acryloyl)-5-(4-(benzyloxy)phenyl)-3-(4-methoxyphenyl)-4-nitrocyclohexanone]
